Peptide text beside a SMILES is read from it.
What was measured:
[1] = Heparin binding to peptides coated on 96-well plastic plates (Example 2); details: 1 mg/ml to 1 μg/ml, two hours at 37° C., FIG. 5
Method: In order to test the ability of the synthesized peptides (9 and 11-18) to bind to 96-well plastic plates (in which experiments with cultured cell lines can be performed), we did an experiment similar to that described above in Example 1. Stock solutions of peptides 9 and 11-18, laminin and BSA at a maximum concentration of 1 mg/ml were prepared and serially diluted in PBS+NaN3 producing final concentration from 1 mg/ml to 1 μg/ml. Fifty μl from each concentration was coated on the 96-well plates and left to dry overnight at 28° C. Then, wells were treated for two hours with […] of 2 mg/ml BSA in 6 mM phosphate, 100 mM NaCl, 68 μM CaCl2, pH 6.8 (wash buffer) in order to minimize non-specific binding. Next 50 μls of ^3 H-heparin (10 μg/ml) was added (50,000 cpm/well) for two hours at 37° C. The wells were then washed three times with wash buffer containing 0.05% Triton X-100 and finally they were incubated for thirty minutes at 60 C with 200 μl of 0.5 N NaOH and 1% SDS. The amount of ^3 H-heparin bound at each peptide concentration was quantitated as described above in Example 1.

[2] = test system: PC12 rat pheochromocytoma cells; assay: Cell adhesion assay for PC12 pheochromocytoma cell line (Example 6D); type: cell-based; details: FIG. 13
Method: (§1) Adhesion was measured using 96 well microtiter plates adsorbed with three different amounts (0.1; 1.0; and 10.0 μg/per well) of peptides 9, 11-18, BSA and laminin. Cultures of cells which were 60-80% confluent were metabolically labeled for 24 hours with the addition of 3 mCi/ml of ^3 H-amino acid mixture. On the day of the assay, the cells were harvested by trypsinization, the trypsin was inhibited by the addition of serum, and the cells were washed free of this mixture and resuspended in DMEM buffered with HEPES at pH 7.2. The adhesion medium also contained 2 mg/ml BSA. The cells were adjusted to a concentration of 3-4×10^4 /ml and 100 μls of this cell suspension was added to the wells. The assay mixture was then incubated at 37° C for 120 minutes. At the end of the incubation, the wells were washed with warm PBS containing 10 mM Ca^++, and the adherent population was solubilized with 0.5N NaOH containing 1% sodium dodecyl sulfate. The solubilized cells were then quantitated using a liquid scintillation counter. Each determination was done in triplicate.
PC12 rat pheochromocytoma cells were provided by Dr. P. Letourneau of the Department of Anatomy, University of Minnesota, Minneapolis, Minn. Culturing techniques were as described in part A. Labelling and harvesting techniques were as described in Example 5. Cell adhesion assay was performed as described in Example 5.

[3] = test system: murine melanoma cells, K-1735-M4; assay: Cell adhesion assay for M4 cell line (Example 6A); type: cell-based; details: FIG. 10
Method: as §1
Highly metastatic murine melanoma cells, K-1735-M4 were originally provided by Dr. I. J. Fidler of Anderson Hospital, University of Texas Health Sciences Center, Houston, Tex. When the cells were received, a large number of early passage cells were propagated and frozen in liquid nitrogen. […]

binding of ^3 H-heparin [1]	SMILES	cell adhesion [2]	cell adhesion [3]
bind heparin very well	CSCC[C@H](NC(=O)CNC(=O)[C@H](CCCCN)NC(=O)[C@H](CCC(=O)O)NC(=O)[C@H](Cc1ccccc1)NC(=O)[C@H](CS)NC(=O)[C@@H](NC(=O)[C@@H]1CCCN1C(=O)[C@H](CCCNC(=N)N)NC(=O)[C@@H]1CCCN1C(=O)[C@H](CC(C)C)NC(=O)[C@@H](NC(=O)[C@@H](NC(=O)[C@H](Cc1ccc(O)cc1)NC(=O)[C@@H](N)CCCNC(=N)N)C(C)C)C(C)C)C(C)C)C(=O)N[C@@H](CC(N)=O)C(=O)N[C@@H](Cc1ccc(O)cc1)C(=O)N[C@H](C(=O)N[C@H](C(=O)N[C@@H](CCCNC(=N)N)C(=O)O)C(C)C)[C@@H](C)O [Peptide F9] (H-RYVVLPRPVCFEKGMNYTVR-OH)	potent promoters of cell adhesion	potent promoters of cell adhesion
binds heparin but less extensively	CC[C@H](C)[C@H](NC(=O)[C@H](CCCCN)NC(=O)[C@H](CC(C)C)NC(=O)[C@H](C)NC(=O)[C@H](CCCCN)NC(=O)[C@H](C)NC(=O)[C@H](CCCCN)NC(=O)[C@H](CCC(=O)O)NC(=O)[C@H](CC(C)C)NC(=O)[C@H](Cc1ccccc1)NC(=O)[C@H](CCCCN)NC(=O)[C@H](Cc1c[nH]cn1)NC(=O)[C@@H](NC(=O)[C@H](CCCNC(=N)N)NC(=O)[C@H](CC(N)=O)NC(=O)[C@@H](NC(=O)[C@H](CC(C)C)NC(=O)[C@@H](N)CCC(=O)O)[C@@H](C)O)[C@@H](C)O)C(=O)O [Peptide F13, ELTNRTHKFLEKAKALKI] (H-ELTNRTHKFLEKAKALKI-OH)	potent promoters of cell adhesion	potent promoters of cell adhesion

Source: US4870160A, “Polypeptides with laminin activity” (Regents of the University of Minnesota, priority 1987, dated 1989)
